The values below come from patent publication US20210395313A1, “PEPTIDE PAC1 ANTAGONISTS” (AMGEN INC., priority 2017, published 2021).

Where a SMILES comes first, the peptide text is derived from it. Bridges are numbered along the chain shown (N, C = ends). Where no end group is shown, it is not given here.

What is called IC50 is the point on the concentration scale where inhibition reaches its midpoint.

For one experiment, the target named is T1, human PAC1 receptor (Homo sapiens, UniProt P41586).
T1 construct: SHSY-5Y (human neuroblastoma cell line) and RG-2 (rat glioma cell line) cells endogenously express human and rat PAC1 receptors, respectively; endogenous in cells; host or cells: SHSY-5Y human neuroblastoma cells
T1 sequence (P41586 21-468): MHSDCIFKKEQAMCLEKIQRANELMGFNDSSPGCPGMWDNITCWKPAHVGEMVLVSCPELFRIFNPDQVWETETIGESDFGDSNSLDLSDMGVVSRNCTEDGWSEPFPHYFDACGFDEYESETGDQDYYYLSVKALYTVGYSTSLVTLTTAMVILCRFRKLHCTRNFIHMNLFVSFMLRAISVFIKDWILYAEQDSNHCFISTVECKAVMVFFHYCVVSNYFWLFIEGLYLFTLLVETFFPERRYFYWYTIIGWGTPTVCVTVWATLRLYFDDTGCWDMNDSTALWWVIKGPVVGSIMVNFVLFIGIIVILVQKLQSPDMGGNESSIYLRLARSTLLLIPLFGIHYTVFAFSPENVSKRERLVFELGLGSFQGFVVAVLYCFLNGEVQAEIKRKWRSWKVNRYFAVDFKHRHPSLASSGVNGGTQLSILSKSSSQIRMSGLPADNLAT
Nature of the experiment: LANCE Ultra cAMP accumulation antagonist assay in SHSY-5Y cells.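 Further: inhibition of cAMP accumulation evoked by PAC1 agonist at its EC80 in SHSY-5Y cells endogenously expressing receptor, 30 min preincubation then 15 min agonist, TR-FRET readout.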 The class given is cell-based.

For another experiment, the target named is T2, rat PAC1 receptor (Rattus norvegicus, UniProt P32215).
T2 construct: SHSY-5Y (human neuroblastoma cell line) and RG-2 (rat glioma cell line) cells endogenously express human and rat PAC1 receptors, respectively; endogenous in cells; host or cells: RG-2 rat glioma cells
T2 sequence (P32215 20-523): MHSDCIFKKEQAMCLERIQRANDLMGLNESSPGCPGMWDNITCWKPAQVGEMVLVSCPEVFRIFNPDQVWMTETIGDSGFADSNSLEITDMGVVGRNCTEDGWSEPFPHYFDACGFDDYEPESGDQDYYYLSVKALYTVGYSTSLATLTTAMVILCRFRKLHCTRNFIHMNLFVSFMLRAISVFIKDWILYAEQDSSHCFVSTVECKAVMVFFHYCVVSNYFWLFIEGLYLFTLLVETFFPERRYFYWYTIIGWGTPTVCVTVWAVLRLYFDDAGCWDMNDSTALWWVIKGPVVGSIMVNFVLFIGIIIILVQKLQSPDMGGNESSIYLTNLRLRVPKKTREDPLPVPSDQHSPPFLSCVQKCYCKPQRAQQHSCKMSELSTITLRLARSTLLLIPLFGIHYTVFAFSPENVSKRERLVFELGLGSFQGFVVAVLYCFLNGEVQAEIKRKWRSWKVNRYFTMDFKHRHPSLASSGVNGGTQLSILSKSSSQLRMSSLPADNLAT
Nature of the experiment: LANCE Ultra cAMP accumulation antagonist assay in RG-2 cells.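 Further: RG-2 rat glioma cells endogenously expressing PAC1, test peptide preincubated 30 min, then PAC1 agonist added at its EC80 for 15 min, cAMP accumulation read by LANCE Ultra.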 The format is cell-based. For orientation: In TR-FRET formats the signal depends on donor and acceptor labels being close together.

Turning to `CC[C@H](C)[C@H](NC(=O)[C@H](C)NC(=O)[C@H](CCCCN)NC(=O)[C@H](CCCNC(=N)N)NC(=O)[C@H](Cc1ccccc1)NC(=O)[C@H](CCC(N)=O)NC(=O)[C@@H]1CSSC[C@H](N)C(=O)N[C@@H](CC(=O)O)C(=O)N[C@@H](C)C(=O)N[C@@H]([C@@H](C)O)C(=O)N1)C(=O)N[C@@H](CC(=O)O)C(=O)N[C@@H](CC(=O)O)C(=O)N[C@H]1CSSC[C@@H](C(=O)N[C@@H](CCSC)C(=O)N[C@@H](CCCCN)C(=O)N[C@@H](CCC(N)=O)C(=O)N[C@@H](CCCCN)C(=O)N[C@@H](CCCCN)C(=O)N[C@@H](CCCCN)C(=O)N[C@@H](CCC(=O)O)C(=O)N[C@@H](Cc2ccccc2)C(=O)N[C@@H](CCCCN)C(=O)N[C@@H](C)C(=O)NCC(=O)N[C@@H](Cc2c[nH]cn2)C(=O)O)NC(=O)[C@H](C)NC(=O)[C@H](CCCCN)NC(=O)[C@H](Cc2ccccc2)NC(=O)[C@H](C(C)C)NC(=O)[C@H](CO)NC(=O)[C@H](CO)NC(=O)[C@H](Cc2c[nH]cn2)NC(=O)[C@H](Cc2c[nH]cn2)NC(=O)[C@H](C)NC(=O)[C@H](CCC(N)=O)NC(=O)[C@H](CCCCN)NC(=O)[C@H](C(C)C)NC1=O` [compound 19] (H-CDATCQFRKAIDDCVKQAHHSSVFKACMKQKKKEFKAGH-OH; disulfide 1-5, 14-27), the figures for the IC50 against human PAC1 receptor and on rat PAC1 receptor were 1 to 100 nM and 0.01 to 1 nM, respectively.
`CSCC[C@@H]1NC(=O)[C@H](C)NC(=O)[C@H](C(C)C)NC(=O)[C@H](CCCCN)NC(=O)[C@H](CCCCN)NC(=O)[C@H](Cc2ccc(O)cc2)NC(=O)[C@H](CC(C)C)NC(=O)[C@@H](NC(=O)[C@H](C)NC(=O)[C@@H](NC(=O)[C@H](CC(C)C)NC(=O)CNC(=O)[C@H](CCCCN)NC(=O)[C@H](CCCNC(=N)N)NC(=O)[C@H](Cc2ccc(O)cc2)NC(=O)[C@H](CCC(N)=O)NC(=O)[C@@H]2CSSC[C@H](N)C(=O)N[C@@H](CC(=O)O)C(=O)N[C@@H](C)C(=O)N[C@@H]([C@@H](C)O)C(=O)N2)C(C)C)CSSC[C@@H](C(=O)N[C@@H](CCSC)C(=O)N[C@@H](CCCCN)C(=O)N[C@@H](CCC(N)=O)C(=O)N[C@@H](CCCCN)C(=O)N[C@@H](CCCCN)C(=O)N[C@@H](CCCCN)C(=O)N[C@@H](CCC(=O)O)C(=O)N[C@@H](Cc2c[nH]c3ccccc23)C(N)=O)NC(=O)[C@H](C)NC(=O)[C@H](CCCCN)NC(=O)[C@H](Cc2ccccc2)NC(=O)[C@H](C(C)C)NC(=O)[C@H](CO)NC(=O)[C@H](Cc2ccc(O)cc2)NC(=O)[C@H](CCCNC(=N)N)NC(=O)[C@H](CCCCN)NC(=O)[C@H](CCC(N)=O)NC1=O` [compound 427] (H-CDATCQYRKGLVACLYKKVAMQKRYSVFKACMKQKKKEW-NH2; disulfide 1-5, 14-31): the IC50 at human PAC1 receptor and on rat PAC1 receptor was 1 to 100 nM throughout.
Take “CDATCQFRKAIDDCYYRSWHANVPGSVFKACMKQKKKEWKAG-NH2 (disulfide 1-5, 14-31) [compound 60]”: the half-inhibitory concentration (IC50) against human PAC1 receptor and against rat PAC1 receptor was 0.01 to 1 nM in each case.
For `CC[C@H](C)[C@H](NC(=O)[C@H](C)NC(=O)[C@H](CCCCN)NC(=O)[C@H](CCCNC(=N)N)NC(=O)[C@H](Cc1ccccc1)NC(=O)[C@H](CCC(N)=O)NC(=O)[C@@H]1CSSC[C@H](N)C(=O)N[C@@H](CC(=O)O)C(=O)N[C@@H](C)C(=O)N[C@@H]([C@@H](C)O)C(=O)N1)C(=O)N[C@@H](CC(=O)O)C(=O)N[C@@H](CC(=O)O)C(=O)N[C@H]1CSSC[C@@H](C(=O)N[C@@H](CCSC)C(=O)N[C@@H](CCCCN)C(=O)N[C@@H](CCC(N)=O)C(=O)N[C@@H](CCCCN)C(=O)N[C@@H](CCCCN)C(=O)N[C@@H](CCCCN)C(=O)N[C@@H](CCC(=O)O)C(=O)N[C@@H](Cc2c[nH]c3ccccc23)C(=O)N[C@@H](CCCCN)C(=O)N[C@@H](C)C(=O)NCC(N)=O)NC(=O)[C@H](C)NC(=O)[C@H](CCCCN)NC(=O)[C@H](Cc2ccccc2)NC(=O)[C@H](C(C)C)NC(=O)[C@H](CO)NC(=O)[C@H](CO)NC(=O)[C@H](Cc2c[nH]cn2)NC(=O)[C@H](Cc2c[nH]cn2)NC(=O)[C@H](C)NC(=O)[C@H](CCC(N)=O)NC(=O)[C@H](CCCNC(=N)N)NC(=O)[C@H](CC(=O)O)NC1=O` [compound 16] (H-CDATCQFRKAIDDCDRQAHHSSVFKACMKQKKKEWKAG-NH2; disulfide 1-5, 14-27), the IC50 at human PAC1 receptor and against rat PAC1 receptor was 0.01 to 1 nM throughout.
Consider “CDATCQFRKAIDDCWKQAHHSNVPGSVFKACMKQKKKEFKAG-NH2 (disulfide 1-5, 14-31) [compound 80]”, for which the IC50 was 0.01 to 1 nM against human PAC1 receptor and below 0.01 nM against rat PAC1 receptor.
“CDATCQFRKAIDDCYYRSWHANVPGSVFKACMKQKKKEWKAGN (disulfide 1-5, 14-31) [compound 62]”: the IC50 was in the range of 1 to 100 nM at human PAC1 receptor and 0.01 to 1 nM on rat PAC1 receptor.
“CDATCQFRKAIDDCWVIAWHSNVPGSVFKACMKQKKKEFKAG-NH2 (disulfide 1-5, 14-31) [compound 130]”: the IC50 was 0.01 to 1 nM against human PAC1 receptor and below 0.01 nM against rat PAC1 receptor.
Regarding “CDATCQFRKAIDDCYYYAMHSNVPGSVWKACLKQKKKEFKAG-NH2 (disulfide 1-5, 14-31) [compound 78]”, the IC50 on human PAC1 receptor and at rat PAC1 receptor was 0.01 to 1 nM in each case.
Take “CDATCQFRKAIDDCAWFALHSNVPGSVFKACMKQKKKEFKAG-NH2 (disulfide 1-5, 14-31) [compound 91]”: the IC50 against human PAC1 receptor and against rat PAC1 receptor was 0.01 to 1 nM throughout.
Take “CDATCQFRKAIDDCARQAHHSNVPGSVFKACSKQKKKEWKAGH (disulfide 1-5, 14-31) [compound 40]”: the IC50 on human PAC1 receptor and against rat PAC1 receptor was 1 to 100 nM in each case.
On to “CDATCQFRKAIDDCHLLAWHANVPGSVFKACMKQKKKEFKAG-NH2 (disulfide 1-5, 14-31) [compound 140]”, for which the IC50 on human PAC1 receptor and against rat PAC1 receptor was 0.01 to 1 nM in each case.
With “CDATCQFRKAIDDCYYYAMHSNVPGSVWKACMKQKKKEFKAG-NH2 (disulfide 1-5, 14-31) [compound 150]”, the IC50 against human PAC1 receptor and on rat PAC1 receptor was 0.01 to 1 nM in each case.
